Experimental data from the NIST ThermoML archive (doi:10.1016/j.jct.2018.08.013).
Where “and” joins values, the source holds several entries; their conditions need not be identical. Equal values may be shown once. ± gives the expanded uncertainty stated by the source.

How the values were obtained:
[1] = xn = mol fraction of the nth substance listed; conditions: 298 K; 100 kPa; Crystal of intercomponent compound 1; X-ray diffraction; x2 = 0.451
[2] = specific heat capacity at constant pressure; xn = mol fraction of the nth substance listed; conditions: 100 kPa, Crystal of intercomponent compound 1, x2 = 0.451

[S] [sulfur] + [In]
Conditions | mass density [kg/m3]
[1] | 5211 ± 300

[2]
Conditions | specific heat capacity
14.16 K, relaxation calorimetry | 10.46 ± 1 J/K/kg
14.18 K, relaxation calorimetry | 10.51 ± 1 J/K/kg
16.17 K, relaxation calorimetry | 15.52 ± 1.2 J/K/kg
16.18 K, relaxation calorimetry | 15.54 ± 1.2 J/K/kg
16.19 K, relaxation calorimetry | 15.59 ± 1.2 J/K/kg
18.2 K, relaxation calorimetry | 21.32 ± 1.5 J/K/kg and 21.36 ± 1.5 J/K/kg
20.21 K, relaxation calorimetry | 27.47 ± 1.7 J/K/kg and 27.51 ± 1.7 J/K/kg
20.22 K, relaxation calorimetry | 27.57 ± 1.7 J/K/kg
22.23 K, relaxation calorimetry | 33.81 ± 1.9 J/K/kg and 33.8 ± 1.9 J/K/kg
22.24 K, relaxation calorimetry | 33.85 ± 1.9 J/K/kg
24.25 K, relaxation calorimetry | 40.26 ± 2.1 J/K/kg and 40.2 ± 2.1 J/K/kg
24.26 K, relaxation calorimetry | 40.28 ± 2.1 J/K/kg
26.26 K, relaxation calorimetry | 46.66 ± 2.3 J/K/kg and 46.68 ± 2.3 J/K/kg
26.27 K, relaxation calorimetry | 46.58 ± 2.3 J/K/kg
28.28 K, relaxation calorimetry | 52.75 ± 2.5 J/K/kg and 52.77 ± 2.5 J/K/kg and 52.81 ± 2.5 J/K/kg
30.3 K, relaxation calorimetry | 58.62 ± 2.6 J/K/kg and 58.63 ± 2.6 J/K/kg
30.31 K, relaxation calorimetry | 58.71 ± 2.6 J/K/kg
35.34 K, relaxation calorimetry | 72.92 ± 3.1 J/K/kg
35.36 K, relaxation calorimetry | 72.92 ± 3.1 J/K/kg
40.38 K, relaxation calorimetry | 85.85 ± 3.6 J/K/kg
45.42 K, relaxation calorimetry | 97.7 ± 4.1 J/K/kg
45.43 K, relaxation calorimetry | 97.63 ± 4.1 J/K/kg
45.44 K, relaxation calorimetry | 97.63 ± 4.1 J/K/kg
50.46 K, relaxation calorimetry | 109.27 ± 4.5 J/K/kg and 109.41 ± 4.6 J/K/kg
50.48 K, relaxation calorimetry | 109.27 ± 4.5 J/K/kg
55.5 K, relaxation calorimetry | 120.03 ± 5 J/K/kg and 120.1 ± 5 J/K/kg
55.51 K, relaxation calorimetry | 120.17 ± 5 J/K/kg
60.54 K, relaxation calorimetry | 130.38 ± 5.4 J/K/kg and 130.24 ± 5.4 J/K/kg
65.58 K, relaxation calorimetry | 140.8 ± 5.8 J/K/kg and 140.86 ± 5.8 J/K/kg
65.59 K, relaxation calorimetry | 140.8 ± 5.8 J/K/kg
70.62 K, relaxation calorimetry | 151.01 ± 6.2 J/K/kg and 151.08 ± 6.2 J/K/kg
70.64 K, relaxation calorimetry | 150.94 ± 6.2 J/K/kg
75.66 K, relaxation calorimetry | 160.88 ± 6.6 J/K/kg and 160.47 ± 6.5 J/K/kg and 160.68 ± 6.6 J/K/kg
80.69 K, relaxation calorimetry | 170.82 ± 7 J/K/kg and 170.68 ± 6.9 J/K/kg and 170.62 ± 6.9 J/K/kg
85.73 K, relaxation calorimetry | 180.22 ± 7.4 J/K/kg and 180.15 ± 7.4 J/K/kg and 179.74 ± 7.4 J/K/kg
90.75 K, relaxation calorimetry | 189.47 ± 7.8 J/K/kg
90.77 K, relaxation calorimetry | 189.13 ± 7.7 J/K/kg and 188.59 ± 7.7 J/K/kg
95.78 K, relaxation calorimetry | 197.58 ± 8 J/K/kg
95.79 K, relaxation calorimetry | 197.17 ± 8 J/K/kg and 197.1 ± 8 J/K/kg
100.82 K, relaxation calorimetry | 204.93 ± 8.4 J/K/kg
100.83 K, relaxation calorimetry | 204.59 ± 8.3 J/K/kg
100.92 K, relaxation calorimetry | 204.18 ± 8.3 J/K/kg
105.86 K, relaxation calorimetry | 212.83 ± 8.6 J/K/kg
105.87 K, relaxation calorimetry | 213.24 ± 8.7 J/K/kg and 212.76 ± 8.6 J/K/kg
113.82 K, relaxation calorimetry | 223.18 ± 9.1 J/K/kg and 223.24 ± 9.1 J/K/kg and 222.9 ± 9.1 J/K/kg
121.72 K, relaxation calorimetry | 233.18 ± 9.5 J/K/kg
121.75 K, relaxation calorimetry | 233.18 ± 9.5 J/K/kg
121.76 K, relaxation calorimetry | 233.12 ± 9.5 J/K/kg
129.68 K, relaxation calorimetry | 241.97 ± 9.8 J/K/kg
129.69 K, relaxation calorimetry | 242.31 ± 9.9 J/K/kg and 241.97 ± 9.8 J/K/kg
137.6 K, relaxation calorimetry | 249.86 ± 10 J/K/kg
137.62 K, relaxation calorimetry | 250 ± 10 J/K/kg
145.51 K, relaxation calorimetry | 257.22 ± 10 J/K/kg
145.55 K, relaxation calorimetry | 257.15 ± 10 J/K/kg and 256.88 ± 10 J/K/kg
153.44 K, relaxation calorimetry | 264.09 ± 11 J/K/kg
153.45 K, relaxation calorimetry | 264.23 ± 11 J/K/kg
153.46 K, relaxation calorimetry | 264.03 ± 11 J/K/kg
161.36 K, relaxation calorimetry | 269.88 ± 11 J/K/kg
161.38 K, relaxation calorimetry | 270.02 ± 11 J/K/kg
161.39 K, relaxation calorimetry | 270.08 ± 11 J/K/kg
169.28 K, relaxation calorimetry | 275.6 ± 11 J/K/kg
169.31 K, relaxation calorimetry | 275.74 ± 11 J/K/kg
169.32 K, relaxation calorimetry | 275.46 ± 11 J/K/kg
177.2 K, relaxation calorimetry | 280.36 ± 11 J/K/kg
177.24 K, relaxation calorimetry | 280.23 ± 11 J/K/kg and 280.3 ± 11 J/K/kg
185.14 K, relaxation calorimetry | 284.52 ± 12 J/K/kg
185.17 K, relaxation calorimetry | 284.79 ± 12 J/K/kg and 284.86 ± 12 J/K/kg
193.05 K, relaxation calorimetry | 288.4 ± 12 J/K/kg
193.08 K, relaxation calorimetry | 288.74 ± 12 J/K/kg
193.09 K, relaxation calorimetry | 289.08 ± 12 J/K/kg
200.97 K, relaxation calorimetry | 292.69 ± 12 J/K/kg
201 K, relaxation calorimetry | 292.89 ± 12 J/K/kg
201.01 K, relaxation calorimetry | 293.03 ± 12 J/K/kg
208.88 K, relaxation calorimetry | 296.02 ± 12 J/K/kg
208.92 K, relaxation calorimetry | 295.96 ± 12 J/K/kg and 296.16 ± 12 J/K/kg
216.78 K, relaxation calorimetry | 299.56 ± 12 J/K/kg
216.82 K, relaxation calorimetry | 299.7 ± 12 J/K/kg
216.83 K, relaxation calorimetry | 299.7 ± 12 J/K/kg
224.7 K, relaxation calorimetry | 302.56 ± 12 J/K/kg
224.74 K, relaxation calorimetry | 303.1 ± 12 J/K/kg
224.75 K, relaxation calorimetry | 302.7 ± 12 J/K/kg
232.6 K, relaxation calorimetry | 305.01 ± 12 J/K/kg
232.66 K, relaxation calorimetry | 305.01 ± 12 J/K/kg and 305.22 ± 12 J/K/kg
240.51 K, relaxation calorimetry | 306.71 ± 12 J/K/kg
240.54 K, relaxation calorimetry | 307.67 ± 13 J/K/kg and 307.53 ± 12 J/K/kg
248.4 K, relaxation calorimetry | 309.84 ± 13 J/K/kg
248.45 K, relaxation calorimetry | 310.12 ± 13 J/K/kg
248.48 K, relaxation calorimetry | 308.89 ± 13 J/K/kg
256.34 K, relaxation calorimetry | 310.59 ± 13 J/K/kg
256.4 K, relaxation calorimetry | 310.73 ± 13 J/K/kg and 310.66 ± 13 J/K/kg
262.24 K, Extra sensitive DSC | 315.9 ± 12 J/K/kg
264.24 K, relaxation calorimetry | 312.43 ± 13 J/K/kg
264.3 K, relaxation calorimetry | 312.98 ± 13 J/K/kg
264.31 K, relaxation calorimetry | 312.98 ± 13 J/K/kg
265 K, Extra sensitive DSC | 316.72 ± 12 J/K/kg
270 K, Extra sensitive DSC | 317.74 ± 12 J/K/kg
275 K, Extra sensitive DSC | 319.31 ± 12 J/K/kg
280 K, Extra sensitive DSC | 320.94 ± 12 J/K/kg
285 K, Extra sensitive DSC | 322.44 ± 12 J/K/kg
290 K, Extra sensitive DSC | 323.94 ± 13 J/K/kg
295 K, Extra sensitive DSC | 325.44 ± 13 J/K/kg
300 K, Extra sensitive DSC | 326.59 ± 13 J/K/kg
305 K, Extra sensitive DSC | 328.02 ± 13 J/K/kg
310 K, Extra sensitive DSC | 329.18 ± 13 J/K/kg
315 K, Extra sensitive DSC | 329.93 ± 13 J/K/kg
320 K, Extra sensitive DSC | 330.54 ± 13 J/K/kg
325 K, Extra sensitive DSC | 331.29 ± 13 J/K/kg
330 K, Extra sensitive DSC | 332.31 ± 13 J/K/kg
335 K, Extra sensitive DSC | 333.13 ± 13 J/K/kg
337.86 K, Extra sensitive DSC | 333.4 ± 13 J/K/kg
340.38 K, Extra sensitive DSC | 332.92 ± 13 J/K/kg
343.85 K, Extra sensitive DSC | 333.47 ± 13 J/K/kg
345.58 K, Extra sensitive DSC | 333.74 ± 13 J/K/kg
348.19 K, Extra sensitive DSC | 335.31 ± 13 J/K/kg
350.79 K, Extra sensitive DSC | 335.51 ± 13 J/K/kg
353.39 K, Extra sensitive DSC | 335.99 ± 13 J/K/kg
355.13 K, Extra sensitive DSC | 336.53 ± 13 J/K/kg
356 K, Extra sensitive DSC | 335.78 ± 13 J/K/kg
358.6 K, Extra sensitive DSC | 336.4 ± 13 J/K/kg
